Assay results published in US20230107983A1, “COMPOUND ISOLATED FROM TORILIDIS FRUCTUS, AND ANTICANCER PHARMACEUTICAL COMPOSITION CONTAINING SAME AS ACTIVE INGREDIENT” (PHARMA-GENE CO., LTD., priority 2020, published 2023).

How the values were obtained:
[1] = test system: human lung cancer cells (A549); assay: Nude mouse xenograft model of human lung cancer cells, oral administration; format: in vivo; parameters: Tumor size increase (Vt—V0): unit not given here
Protocol: Anticancer activity against lung cancer according to the oral administration of Tr-9 was confirmed through a nude mouse xenograft model of human lung cancer cells (A549). Specific pathogen-free (SPF) nude mice of the BALB/C strain were used as the animal model. Animals were bred in the animal room of Daedeok Campus of Hannam University maintained at a temperature of 23±3° C., relative humidity of 55±15%, ventilation frequency of 10-20 times/hr, lighting time of 12 hours(lights on at 8 am and off at 8 pm) and illuminance of 150 to 300 Lux.
(§1) For cancer cell transplantation, all cells were collected and counted on the last day of culture, and the concentration of human lung cancer cell line A549 was adjusted to 5×10^6 cells/ml using PBS. The adjusted cell culture solution was injected subcutaneously into the auxiliary region between the right scapula and chest wall at 0.2 ml (1×10^6 cells/mouse) per mouse.
The Tr-9 was dissolved in sterile PBS and 1 mM Tr-9 200 µℓ was orally administered per mouse once a day, and all animals were weighed immediately before the start of drug (Tr-9) administration and 10 times in total from day 2 to day 23 after cancer cell transplantation (Table 1).
In Table 1 above, data values are the mean ± standard deviation. After measuring the body weight, the animals were killed using CO2 gas, and the tumor was separated and the size was measured in 3 directions using a vernier caliper for each animal. Then, the change in tumor size was expressed as a calculated value of (length × width × height)/2 (Table 2).
(§2) Tumor size increase is (Δt)= Vt—Vo, wherein Vt is the value of measuring the tumor size by date, and Vo is the value of measuring the initial tumor size.

[2] = Change in mouse weight, HCT116 xenograft, intraperitoneal administration; format: in vivo, nude mouse; parameters: Change in mouse weight: unit not given here; settings: intraperitoneal once a day
Protocol: The Tr-9 was dissolved in sterile PBS and 1 mM Tr-9 200 µℓ was intraperitoneally administered per mouse once a day, and all animals were weighed immediately before the start of drug (Tr-9) administration and 9 times in total from day 2 to day 21 after cancer cell transplantation (Table 7).
In Table 7 above, data values are the mean ± standard deviation. After measuring the body weight, the animals were killed using CO2 gas, and the tumor was separated and the size was measured in 3 directions using a vernier caliper for each animal. Then, the change in tumor size was expressed as a calculated value of (length × width × height)/2 (Table 8).

[3] = test system: human lung cancer cells (A549); assay: Nude mouse xenograft model of human lung cancer cells, intraperitoneal administration; format: in vivo
Protocol: Anticancer activity against lung cancer according to the intraperitoneal administration of Tr-9 was confirmed through a nude mouse xenograft model of human lung cancer cells (A549). In Example 4, it was carried out using the same animal model and method as the oral administration, except that it was administered intraperitoneally.
Specific pathogen-free (SPF) nude mice of the BALB/C strain were used as the animal model. Animals were bred in the animal room of Daedeok Campus of Hannam University maintained at a temperature of 23±3° C., relative humidity of 55±15%, ventilation frequency of 10-20 times/hr, lighting time of 12 hours(lights on at 8 am and off at 8 pm) and illuminance of 150 to 300 Lux.
as §1
The Tr-9 was dissolved in sterile PBS and 1 mM Tr-9 200 µℓ was intraperitoneally administered per mouse once a day, and all animals were weighed immediately before the start of drug (Tr-9) administration and 10 times in total from day 2 to day 23 after cancer cell transplantation (Table 4).
In Table 4 above, data values are the mean ± standard deviation. After measuring the body weight, the animals were killed using CO2 gas, and the tumor was separated and the size was measured in 3 directions using a vernier caliper for each animal. Then, the change in tumor size was expressed as a calculated value of (length × width × height)/2 (Table 4).
as §2

[4] = intraperitoneal once a day, Day 23

C/C=C(/C)C(=O)O[C@@H]1C[C@H](C)[C@H]2CC(=O)C(C)=C2C[C@@H]1C(C)(C)OC(C)=O [Torilin, torilin, reference compound]
Tumor size increase (Vt—V0) ([1]; oral once a day, Day 0): 0.0±0.0 | Tumor size increase (Vt—V0) ([1]; oral once a day, Day 2): 11.4±11.7 | Inhibition rate (tumor size increase) ([1]; oral once a day, Day 2, vs control): 5.8% | Tumor size increase (Vt—V0) ([1]; oral once a day, Day 5): 18.1±9.4 | Inhibition rate (tumor size increase) ([1]; oral once a day, Day 5, vs control): 10.8% | Tumor size increase (Vt—V0) ([1]; oral once a day, Day 7): 28.6±3.0 | Inhibition rate (tumor size increase) ([1]; oral once a day, Day 7, vs control): 11.7% | Tumor size increase (Vt—V0) ([1]; oral once a day, Day 9): 42.0±9.8 | Inhibition rate (tumor size increase) ([1]; oral once a day, Day 9, vs control): 20.9% | Inhibition rate (tumor size increase) ([1]; oral once a day, Day 12, vs control): 27.0% | Tumor size increase (Vt—V0) ([1]; oral once a day, Day 14): 134.6±37.6 | Inhibition rate (tumor size increase) ([1]; oral once a day, Day 14, vs control): 26.0% | Tumor size increase (Vt—V0) ([1]; oral once a day, Day 16): 211.8±32.9 | Inhibition rate (tumor size increase) ([1]; oral once a day, Day 16, vs control): 27.0% | Tumor size increase (Vt—V0) ([1]; oral once a day, Day 19): 362.2±64.2 | Inhibition rate (tumor size increase) ([1]; oral once a day, Day 19, vs control): 31.5% | Tumor size increase (Vt—V0) ([1]; oral once a day, Day 21): 493.4±82.6 | Inhibition rate (tumor size increase) ([1]; oral once a day, Day 21, vs control): 33.0% | Tumor size increase (Vt—V0) ([1]; oral once a day, Day 23): 646.9±108.8 | Tumor weight at Day 23 ([1]; oral once a day, Day 23): 0.745 ± 0.196 g | Tumor weight reduction rate compared to control group ([1]; oral once a day, Day 23): 29.5% | Inhibition rate (tumor size increase) ([1]; oral once a day, Day 23, vs control): 34.1% | tumor size compared to the control group ([1]; oral, after day 19): statistically significantly smaller | Change in mouse weight ([2]; 0 Day after drug treatment): 100.0 ±0.0 | Change in mouse weight ([2]; 2 Days after drug treatment): 100.5 ±1.8 | Change in mouse weight ([2]; 5 Days after drug treatment): 101.4 ±2.7 | Change in mouse weight ([2]; 7 Days after drug treatment): 98.4 ±2.7 | Change in mouse weight ([2]; 9 Days after drug treatment): 98.4 ±2.8 | Change in mouse weight ([2]; 11 Days after drug treatment): 98.8 ±3.2 | Change in mouse weight ([2]; 14 Days after drug treatment): 98.2 ±4.3 | Change in mouse weight ([2]; 16 Days after drug treatment): 98.6 ±4.9 | Change in mouse weight ([2]; 18 Days after drug treatment): 100.0 ±5.3 | Change in mouse weight ([2]; 21 Days after drug treatment): 101.8 ±7.3 | difference in body weight according to the administration of the drugs ([2]; day 2 to day 21): almost no difference in body weight | Tumor size increase (Vt−V0) ([3]; intraperitoneal once a day, Day 0, table title: Change in tumor size): 0.0±0.0 | Tumor size increase (Vt−V0) ([3]; intraperitoneal once a day, Day 2, table title: Change in tumor size): 13.2±13.2 | Inhibition rate (tumor size increase) ([3]; intraperitoneal once a day, Day 2, vs control): 2.9% | Tumor size increase (Vt−V0) ([3]; intraperitoneal once a day, Day 5, table title: Change in tumor size): 19.91±0.4 | Inhibition rate (tumor size increase) ([3]; intraperitoneal once a day, Day 5, vs control): 4.8% | Tumor size increase (Vt−V0) ([3]; intraperitoneal once a day, Day 7, table title: Change in tumor size): 28.9±12.5 | Inhibition rate (tumor size increase) ([3]; intraperitoneal once a day, Day 7, vs control): 14.7% | Tumor size increase (Vt−V0) ([3]; intraperitoneal once a day, Day 9, table title: Change in tumor size): 38.0±8.1 | Inhibition rate (tumor size increase) ([3]; intraperitoneal once a day, Day 9, vs control): 17.0% | Tumor size increase (Vt−V0) ([3]; intraperitoneal once a day, Day 12, table title: Change in tumor size): 75.1±10.7 | Inhibition rate (tumor size increase) ([3]; intraperitoneal once a day, Day 12, vs control): 14.6% | Tumor size increase (Vt−V0) ([3]; intraperitoneal once a day, Day 14, table title: Change in tumor size): 127.0±25.8 | Inhibition rate (tumor size increase) ([3]; intraperitoneal once a day, Day 14, vs control): 15.6% | Tumor size increase (Vt−V0) ([3]; intraperitoneal once a day, Day 16, table title: Change in tumor size): 210.5±44.8 | Inhibition rate (tumor size increase) ([3]; intraperitoneal once a day, Day 16, vs control): 19.9% | Tumor size increase (Vt−V0) ([3]; intraperitoneal once a day, Day 19, table title: Change in tumor size): 394.8±93.5 | Inhibition rate (tumor size increase) ([3]; intraperitoneal once a day, Day 19, vs control): 22.9% | Tumor size increase (Vt−V0) ([3]; intraperitoneal once a day, Day 21, table title: Change in tumor size): 525.2±99.1 | Inhibition rate (tumor size increase) ([3]; intraperitoneal once a day, Day 21, vs control): 22.7% | Tumor weight at Day 23 [3, 4]: 0.97 ± 0.183 g | Tumor weight reduction rate compared to control group [3, 4]: 28.6% | Tumor size increase (Vt−V0) ([3]; intraperitoneal once a day, Day 23, table title: Change in tumor size): 695.0±110.6 | Inhibition rate (tumor size increase) ([3]; intraperitoneal once a day, Day 23, vs control): 27.0% | tumor size compared to the control group ([3]; intraperitoneal, after day 19): statistically significantly smaller
